Measured values published in the NIST ThermoML archive (doi:10.1016/j.jct.2010.03.021).
Several values for one entry are separate records, joined by “and”; a condition that tells them apart may be missing. Equal values may be shown once. Numbers after ± are expanded uncertainties.

Tests used:
[1] = Crystal, Calculated from knudsen effusion weight loss
[2] = molar enthalpy of vaporization or sublimation; details: Crystal

O=[N+]([O-])c1ccccc1-n1cccc1 [1-(2-nitrophenyl)pyrrole]
[1]
Details | vapor or sublimation pressure
306.11 K | 0.000106 ± 5e-06 kPa and 0.000108 ± 5e-06 kPa and 0.000109 ± 5e-06 kPa
308.2 K | 0.000141 ± 7e-06 kPa and 0.000138 ± 7e-06 kPa and 0.000139 ± 7e-06 kPa
310.18 K | 0.000181 ± 9e-06 kPa and 0.000173 ± 9e-06 kPa and 0.000174 ± 9e-06 kPa
312.12 K | 0.000226 ± 1.1e-05 kPa and 0.000227 ± 1.1e-05 kPa and 0.000228 ± 1.1e-05 kPa
314.19 K | 0.000291 ± 1.5e-05 kPa and 0.000284 ± 1.4e-05 kPa and 0.00029 ± 1.5e-05 kPa
316.18 K | 0.000368 ± 1.8e-05 kPa and 0.000355 ± 1.8e-05 kPa and 0.000358 ± 1.8e-05 kPa
318.11 K | 0.000464 ± 2.3e-05 kPa and 0.000466 ± 2.3e-05 kPa
320.18 K | 0.0006 ± 3e-05 kPa and 0.000587 ± 2.9e-05 kPa and 0.000594 ± 3e-05 kPa
322.18 K | 0.000764 ± 3.8e-05 kPa and 0.000733 ± 3.7e-05 kPa and 0.00074 ± 3.7e-05 kPa
324.12 K | 0.000955 ± 4.8e-05 kPa and 0.000965 ± 4.8e-05 kPa and 0.000963 ± 4.8e-05 kPa
326.2 K | 0.001224 ± 0.00013 kPa and 0.001209 ± 0.00013 kPa and 0.001238 ± 0.00013 kPa

[2], Clausius-Clapeyron Equation
Details | molar enthalpy [kcal/mol]
298.15 K | 24.21 ± 0.191
316.16 K | 24 ± 0.191

O=[N+]([O-])c1ccc(-n2cccc2)cc1 [1-(4-nitrophenyl)pyrrole]
[1]
Details | vapor or sublimation pressure
344.09 K | 9.59e-05 ± 4.8e-06 kPa and 9.52e-05 ± 4.8e-06 kPa and 9.41e-05 ± 4.7e-06 kPa
346.13 K | 0.000118 ± 6e-06 kPa and 0.000117 ± 6e-06 kPa
348.17 K | 0.000145 ± 7e-06 kPa and 0.000144 ± 7e-06 kPa
350.09 K | 0.000179 ± 9e-06 kPa and 0.000182 ± 9e-06 kPa and 0.000181 ± 9e-06 kPa
352.13 K | 0.000219 ± 1.1e-05 kPa and 0.00022 ± 1.1e-05 kPa and 0.000227 ± 1.1e-05 kPa
354.18 K | 0.00027 ± 1.4e-05 kPa and 0.000272 ± 1.4e-05 kPa and 0.000284 ± 1.4e-05 kPa
356.13 K | 0.000344 ± 1.7e-05 kPa and 0.000343 ± 1.7e-05 kPa and 0.00034 ± 1.7e-05 kPa
358.2 K | 0.00043 ± 2.2e-05 kPa and 0.000417 ± 2.1e-05 kPa and 0.000427 ± 2.1e-05 kPa
360.16 K | 0.000505 ± 2.5e-05 kPa and 0.000525 ± 2.6e-05 kPa
362.07 K | 0.000642 ± 3.2e-05 kPa and 0.000638 ± 3.2e-05 kPa and 0.000641 ± 3.2e-05 kPa
364.09 K | 0.000766 ± 3.8e-05 kPa and 0.000762 ± 3.8e-05 kPa and 0.000783 ± 3.9e-05 kPa
366.16 K | 0.000934 ± 4.7e-05 kPa and 0.000933 ± 4.7e-05 kPa

[2]
Details | molar enthalpy [kcal/mol]
298.15 K, Ebulliometric method (Recirculating still) | 26.86 ± 0.215
355.13 K, Clausius-Clapeyron Equation | 26.2 ± 0.191
